Laboratory results published in PubChem BioAssay (NCI).
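Dose response: 5 concentrations. Exposure: 48 h. Format: 96-well plates. Endpoint: linear interpolation; highest concentration if not reached. GI50 is the concentration that inhibits growth by half. TGI marks complete inhibition of growth.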

Key:
Test in all cases: growth of human tumour cells (NCI), 48 h
SF-268 CNS = tested on: SF-268 CNS
SN12C renal = tested on: SN12C renal
CAKI-1 renal = tested on: CAKI-1 renal
HS 578T breast = tested on: HS 578T breast
EKVX NSCLC = tested on: EKVX NSCLC
HOP-92 NSCLC = tested on: HOP-92 NSCLC
UACC-62 melanoma = tested on: UACC-62 melanoma
MOLT-4 leukemia = tested on: MOLT-4 leukemia
SW-620 colon = tested on: SW-620 colon
SF-539 CNS = tested on: SF-539 CNS
OVCAR-8 ovarian = tested on: OVCAR-8 ovarian
A498 renal = tested on: A498 renal
K-562 leukemia = tested on: K-562 leukemia
IGROV1 ovarian = tested on: IGROV1 ovarian
NCI-H226 lung = tested on: NCI-H226 lung
RPMI-8226 leukemia = tested on: RPMI-8226 leukemia
MDA-MB-435 = tested on: MDA-MB-435
MDA-MB-231 breast = tested on: MDA-MB-231 breast
ACHN renal = tested on: ACHN renal
NCI-H23 lung = tested on: NCI-H23 lung
DU-145 prostate = tested on: DU-145 prostate
SF-295 CNS = tested on: SF-295 CNS
NCI-H460 lung = tested on: NCI-H460 lung
UO-31 renal = tested on: UO-31 renal
NCI/ADR-RES ovarian = tested on: NCI/ADR-RES ovarian
UACC-257 melanoma = tested on: UACC-257 melanoma
BT-549 breast = tested on: BT-549 breast
786-0 renal = tested on: 786-0 renal
HCT-15 colon = tested on: HCT-15 colon
M14 melanoma = tested on: M14 melanoma
NCI-H522 lung = tested on: NCI-H522 lung
A549 NSCLC = tested on: A549 NSCLC
HL-60(TB) leukemia = tested on: HL-60(TB) leukemia
OVCAR-5 ovarian = tested on: OVCAR-5 ovarian
MCF7 breast = tested on: MCF7 breast
CCRF-CEM leukemia = tested on: CCRF-CEM leukemia
TK-10 renal = tested on: TK-10 renal
SK-MEL-5 melanoma = tested on: SK-MEL-5 melanoma
KM12 colon = tested on: KM12 colon
OVCAR-3 ovarian = tested on: OVCAR-3 ovarian
SR leukemia = tested on: SR leukemia
PC-3 prostate = tested on: PC-3 prostate
SK-MEL-2 melanoma = tested on: SK-MEL-2 melanoma
HCC-2998 colon = tested on: HCC-2998 colon

O=C1C=CC(=O)C(c2cc(-c3ccc(Cl)cc3)nn2-c2ccccc2)=C1
GI50 (SF-268 CNS): 21 µM
TGI (SF-268 CNS): 50 µM
GI50 (SN12C renal): 23.5 µM
TGI (SN12C renal): 46.9 µM
GI50 (CAKI-1 renal): 25.8 µM
TGI (CAKI-1 renal): 53.5 µM
GI50 (HS 578T breast): 23.7 µM
TGI (HS 578T breast): 86.3 µM
GI50 (EKVX NSCLC): 41.6 µM
TGI (EKVX NSCLC): > 100 µM
GI50 (HOP-92 NSCLC): 23.5 µM
TGI (HOP-92 NSCLC): 67.2 µM
GI50 (UACC-62 melanoma): 16.6 µM
TGI (UACC-62 melanoma): 30.7 µM
GI50 (MOLT-4 leukemia): 37.4 µM
TGI (MOLT-4 leukemia): > 100 µM
GI50 (SW-620 colon): 32.9 µM
TGI (SW-620 colon): > 100 µM
GI50 (SF-539 CNS): 27.1 µM
TGI (SF-539 CNS): 51.1 µM
GI50 (OVCAR-8 ovarian): 40.5 µM
TGI (OVCAR-8 ovarian): > 100 µM
GI50 (A498 renal): 10.7 µM
TGI (A498 renal): 48.9 µM
GI50 (K-562 leukemia): 31.1 µM
TGI (K-562 leukemia): > 100 µM
GI50 (IGROV1 ovarian): 35.8 µM
TGI (IGROV1 ovarian): > 100 µM
GI50 (NCI-H226 lung): 16.9 µM
TGI (NCI-H226 lung): 59.6 µM
GI50 (RPMI-8226 leukemia): 16.1 µM
TGI (RPMI-8226 leukemia): 41 µM
GI50 (MDA-MB-435): 20.5 µM
TGI (MDA-MB-435): 46 µM
GI50 (MDA-MB-231 breast): 12.2 µM
TGI (MDA-MB-231 breast): 29 µM
GI50 (ACHN renal): 20.6 µM
TGI (ACHN renal): 41.8 µM
GI50 (NCI-H23 lung): 17.5 µM
TGI (NCI-H23 lung): 42.9 µM
GI50 (DU-145 prostate): 25.4 µM
TGI (DU-145 prostate): 91.1 µM
GI50 (SF-295 CNS): 29.3 µM
TGI (SF-295 CNS): 66.3 µM
GI50 (NCI-H460 lung): 32.2 µM
TGI (NCI-H460 lung): > 100 µM
GI50 (UO-31 renal): 38.1 µM
TGI (UO-31 renal): > 100 µM
GI50 (NCI/ADR-RES ovarian): 23.4 µM
TGI (NCI/ADR-RES ovarian): 54.7 µM
GI50 (UACC-257 melanoma): 29.7 µM
TGI (UACC-257 melanoma): 71.3 µM
GI50 (BT-549 breast): 38 µM
TGI (BT-549 breast): 99.6 µM
GI50 (786-0 renal): 16.9 µM
TGI (786-0 renal): 36.9 µM
GI50 (HCT-15 colon): 30.4 µM
TGI (HCT-15 colon): > 100 µM
GI50 (M14 melanoma): 16.9 µM
TGI (M14 melanoma): 35.9 µM
GI50 (NCI-H522 lung): 25.9 µM
TGI (NCI-H522 lung): 71.7 µM
GI50 (A549 NSCLC): 21.9 µM
TGI (A549 NSCLC): 55.7 µM
GI50 (HL-60(TB) leukemia): 36.2 µM
TGI (HL-60(TB) leukemia): > 100 µM
GI50 (OVCAR-5 ovarian): 27.2 µM
TGI (OVCAR-5 ovarian): 72.1 µM
GI50 (MCF7 breast): 18.8 µM
TGI (MCF7 breast): > 100 µM
GI50 (CCRF-CEM leukemia): 11.7 µM
TGI (CCRF-CEM leukemia): 81.8 µM
GI50 (TK-10 renal): 19.3 µM
TGI (TK-10 renal): 45 µM
GI50 (SK-MEL-5 melanoma): 18.3 µM
TGI (SK-MEL-5 melanoma): 39 µM
GI50 (KM12 colon): 19 µM
TGI (KM12 colon): 44.3 µM
GI50 (OVCAR-3 ovarian): 24.8 µM
TGI (OVCAR-3 ovarian): 54.6 µM
GI50 (SR leukemia): 34.4 µM
TGI (SR leukemia): > 100 µM
GI50 (PC-3 prostate): 17.4 µM
TGI (PC-3 prostate): 41.6 µM
GI50 (SK-MEL-2 melanoma): 51.3 µM
TGI (SK-MEL-2 melanoma): > 100 µM
GI50 (HCC-2998 colon): 18.8 µM
TGI (HCC-2998 colon): 34.4 µM
